Test results from patent US10874749B2, “Gene therapies for neurodegenerative disorders targeting ganglioside biosynthetic pathways” (priority 2015, dated 2020).

What was measured:
DA uptake = assay: Striatal uptake of tritiated dopamine (3H-DA) in striatal homogenates; type: in vivo, mouse; conditions: 3 minutes
Protocol: Whole striatal homogenates were exposed to [^3H] DA for 3 minutes in the presence or absence of mazindol to examine the influence of sialidase treatment on DA uptake.
In mouse studies as depicted in FIG. 4, striatal uptake of tritiated dopamine (^3H-DA) was examined. […] Striatal homogenates were incubated with ^3H-DA in the presence (non-specific) or absence (total) of the DA uptake inhibitor mazindol (Maz).

PD patients = assay: Randomized, controlled, delayed start clinical study of GM1 in PD patients; type: in vivo, human
Description: The more highly expressed gangliosides in the brain are GM1, GD1a, GD1b, GT1b, and GD3. […] Although GM1 administration has promise as a treatment for PD, it is difficult to source, is currently available only as a natural product extracted and purified from animal brains, and has low ability to cross the blood brain barrier.
The mean (±SE) change from baseline in Early-start (randomized to receive GM1 at start of study) and Delayed-start (randomized to receive placebo at start of study) study subjects and in a standard-of-care comparison group (no interventions). The dashed vertical line at week 24 indicates the end of study Phase I. After that, all subjects received GM1. The dashed vertical line at week 120 indicates the end of study Phase II. The horizontal dashed line indicates baseline level. An increase of score indicates symptom worsening; a decrease in score indicates symptom improvement. *=p<0.0001 Early-start vs. Delayed-start; ^=p<0.05 Early-start vs. Delayed-start

DAergic hES cells = assay: Rescue of DAergic hES cells from MPP+ toxicity (TH immunopositive cell count); type: cell-based, human
Protocol: Human stem cells were differentiated into a dopaminergic (DAergic) phenotype using a well characterized method (Iacovitti et al. 2007 as modified in Cai et al., 2013).
hES cells were plated onto 24 well plates. Cells were pretreated with sialidase, GM1 or standard media for 2 hrs and were then exposed to the mitochondrial toxin MPP^+. Twenty-four hours later, media containing toxin was removed and fresh media containing the appropriate concentration of rescue agent was added. Two days later, cells were fixed, processed for tyrosine hydroxylase (TH) immunocytochemistry and the number of TH immunopositive cells were counted.
FIGS. 3A and 3B depict the protection/rescue of human embryonic stem cells from MPP^+ toxicity. A) The number of tyrosine hydroxylase immunopositive (TH^+) cells was reduced as a result of MPP^+ treatment.
Accordingly, the examples and studies identify that human embryonic stem (hES) cells, when differentiated into dopaminergic neurons, are susceptible to MPP^+ toxicity. However, there are mechanisms that exist that can mitigate the effects of MPP^+ toxicity. Indeed, MPP^+ toxicity in hES cells is mitigated by both GM1 and 0.005 U/mL VCS. Therefore, treatment with a sialidase, such as sialidase Neu3 that increases the amounts of GM1 expression in the striatum and the substantia nigra will provide neuroprotective effects.

YAC128 mice = conditions: cited from earlier work
[1] = cited from earlier work
[2] = hES cells differentiated to dopaminergic phenotype

| Compound | total DA uptake (3H-DA) (DA uptake) | change from baseline in score, early effect (PD patients; Early-start vs Delayed-start, Phase I to week 24) | change from baseline in score, later effect (PD patients; Phase II to week 120) | clinical benefit and symptom progression (PD patients; extended GM1 use up to 120 weeks) | improving motor symptoms vs placebo (PD patients; first 24 weeks of the study) | number of tyrosine hydroxylase immunopositive (TH+) cells (DAergic hES cells; 5 and 10 μM doses of MPP+, pretreated 2 hrs) | protection/rescue from MPP+ toxicity (TH+ cells) (DAergic hES cells; [2]) | striatal dopamine levels (YAC128 mice; HD models, intracranial administration) | mHtt phosphorylation (YAC128 mice; YAC128 mice, infusion pump) | time to normalization of motor function from start of treatment (YAC128 mice; infusion pump, YAC128 mice symptomatic for motor impairment) [weeks] | oral bioavailability [1] | bioavailability/penetrance across the blood brain barrier ([1]; systemically administered) | protection/rescue from MPP+ toxicity (TH+ cells) (DAergic hES cells; 0.005 U/mL VCS) |
| --- | --- | --- | --- | --- | --- | --- | --- | --- | --- | --- | --- | --- | --- |
| OC1(c2ccc(Cl)cc2)c2ccccc2C2=NCCN21 (centres unmarked) [Mazindol, mazindol] | effectively blocked | – | – | – | – | – | – | – | – | – | – | – | – |
| GM1 | – | early symptomatic effect | later disease modifying effect | sustained clinical benefit and lower than expected symptom progression | superior to placebo | prevented cell loss | mitigated | normalization | phosphorylation of mHtt at serine residues 13 and 16 | ≤ 2 | no oral bioavailability | low | – |
| VCS: Sialidase V purified from Vibrio cholerae; cleaves a2-8 linkages and terminal a2-3 linkages | – | – | – | – | – | – | protect/rescue cells from MPP^+ toxicity | – | – | – | – | – | mitigated |
